Test results reported in paper PMC8869097, “Benzothiazole Derivatives as Multifunctional Antioxidant Agents for Skin Damage: Structure–Activity Relationship of a Scaffold Bearing a Five-Membered Ring System” (Antioxidants, 2022).
Where two headings read alike, the source gives them in different places.

Legend:
[1] = Ferric Reducing Antioxidant Power assay (FRAP); conditions: 593 nm
Procedure: The FRAP assay is a widely used method based on a colorimetric reaction linked to a redox and on the use of antioxidants as reducing agents.
The test evaluates the capacity of a sample to reduce ferric to ferrous ions in the presence of TPTZ (2,4,6-tripyridyl-s-triazine). The reaction mixture consists of 0.1 M acetate buffer pH 3.6, 10 mmol/L TPTZ in 40 mmol/HCl, and 20 mmol/L ferric chloride in the ratio 10/1/1 (v:v:v) as described by Benzie et al.. A total of 1.9 mL of reagent was added to 0.1 mL of suitably diluted sample or solvent. The absorbance values were measured using the UV-VIS spectrophotometer at 593 nm and expressed as µmol TE/g compound.

In vitro DPPH test = conditions: compounds at 1 mg/mL, 30 min, 517 nm
Procedure: The assay performed is adapted from Wang et al.. Briefly, 0.750 mL of 1 mg/mL solutions of the tested compounds was treated with 1.5 mL of DPPH solution in MeOH. The absorbance of samples, stored for 30 min at room temperature in the dark, was read on the spectrophotometer at 517 nm. The values obtained were converted into a radical inhibition percentage (%) by Equation (1). DPPH radical scavenging capacity (%) = [1 − A1/A0] × 100%(1) where A0 and A1 were, respectively, the absorbance without and with the sample. Subsequently, the compound with the best profile was tested in order to determine the IC50 (µg/mL). A linear regression plot is performed to calculate the actual sample concentration required to eliminate 50% of the DPPH free radicals.
The antioxidant activity of a molecule is very important and, if present, it can be synergistic with the SPF described above in reducing the damage that is ROS-induced by UV rays. For this reason, the synthesized compounds were assayed in vitro to assess their antioxidant profiles by means of the DPPH and FRAP assays (Table 2). Regarding the ability to scavenge the stable radical 2,2-diphenyl-1-picrylhydrazyl (DPPH), it was decided to investigate first the compounds synthesized at the same concentration (1 mg/mL) and evaluate the percentage of inhibition of the radical DPPH.

[2] = UV spectra of compounds in solution (filtering parameters); assay type: physicochemical
Procedure: The evaluation of the sun protection parameters has been carried out using a UV-Vis spectrophotometer. The absorbance of the solutions of the test compounds dissolved in the different solvents (DMSO, MeOH, DMSO–H2O 4:6, DMSO–H2O 6:4, HE) at a concentration of 0.0015 (±0.000005)% was recorded in the range 290–400 nm using a 1 cm quartz cell at 1 nm intervals. It was decided to evaluate the profile of the compounds in the Peg-7 Glyceryl Cocoate (HE) oil, which is the emollient of choice to solubilize the compounds in a formulation suitable for in vivo analysis. Wavelength absorbance is in relationship with transmittance (T (λ)) from Equation (2) A (λ) = […](2) where T (λ) is the fraction of incident irradiance that is transmitted through a sample.
The three parameters were determined, respectively, in DMSO and in methanol in order to perform a comparison (Table S1).
Since DMSO is a solvent with characteristics very close to those of an oil, the analysis was also carried out in solutions that mimic the possible conditions of a formulation. For this reason, the 4:6 and 6:4 proportions of DMSO–H2O were chosen to evaluate the choice of an oil-in-water or water-in-oil emulsion.

Microsporum canis = test: Antidermatophyte activity, plaque growth inhibition; assay type: cell-based, Microsporum canis CBS 131,110; conditions: read-out: % Inhibition Growth M. canis
Procedure: (§1) The dermatophytes used in this study were Epidermophyton floccosum var. floccosum (Netherlands) CBS 358.93 strain, Trichophyton tonsurans (Netherlands) CBS 483.76 strain, Trichophyton mentagrophytes (Netherlands) CBS 160.66 strain, Microsporum canis (Iran) CBS 131,110 strain, and Microsporum gypseum (Iran) CBS 130,948 strain. All dermatophytes were maintained at 4 °C as agar slants on SDA. Candida albicans (ATCC 10231) was maintained at 4 °C on SDA plate.
(§2) The in vitro antifungal activity against the five selected dermatophytes was evaluated, as previously described, using the plaque growth inhibition method. All compounds were evaluated at the final concentration of 100 µg/mL. The percentages of growth inhibition according to Equation (5) were calculated as the average of three different experiments. I = [(C − T)/C] × 100%,(5) where I is the percentage value of growth inhibition, C is the measure of the diameter of the control circular mycelial inoculum (mm) and T is the extended diameter of the treated mycelial inoculum (mm).
(§3) All synthesized benzothiazole derivatives were evaluated to evaluate their in vitro antifungal activity against the five pathogenic dermatophytes that cause the most common dermatomycoses: Microsporum gypseum, Microsporum canis, Trichophyton mentagrophytes, Trichophyton tonsurans and Epidermophyton floccosum. All compounds were tested at a concentration of 100 µg/mL in DMSO, to evaluate the ability to inhibit the growth of dermatophyte cultures in Sabouraud Dextrose Agar (SDA). Briefly, room temperature incubation was performed and dermatophyte inhibition assessed by measuring the colony diameter at each disc for 7 days. The results are shown in Table 3 and were determined as the average of three different experiments.

Microsporum gypseum = test: as above; assay type: cell-based, Microsporum gypseum CBS 130,948; conditions: Nannizzia gypsea, read-out: % Inhibition Growth M. gypseum
Procedure: as §1, §2, §3

Trichophyton tonsurans = test: as above; assay type: cell-based, Trichophyton tonsurans CBS 483.76; conditions: read-out: % Inhibition Growth T. tonsurans
Procedure: as §1, §2, §3

Epidermophyton floccosum = test: as above; assay type: cell-based, Epidermophyton floccosum var. floccosum CBS 358.93; conditions: read-out: % Inhibition Growth E. floccosum
Procedure: as §1, §2, §3

[3] = system: Trichophyton mentagrophytes; test: as above; assay type: cell-based, Trichophyton mentagrophytes CBS 160.66; conditions: read-out: % Inhibition Growth T. mentagrophytes
Procedure: as §1, §2, §3

[4] = Filtering parameters (in vitro SPF, UVAPF, UVA/UVB, critical wavelength) of W/O formulations on PMMA plates; assay type: physicochemical
Procedure: The synthesized derivatives were incorporated at increasing concentrations (1%, 2% and 3%) in a topical W/O cosmetic standard formulation, to evaluate the filtering parameters, having the following ingredients composition.
INCI (International Nomenclature Cosmetic Ingredients): aqua, glycerin, Euxyl PE 9010, xanthan gum, ceteareth-12, ceteareth-20, sterearic acid, butylhydroxytoluene, myritol, PEG-7 glyceryl cocoate and 10% sodium solution.
Briefly, the protocol is to finger spread 32.5 mg of each formulation onto 25 cm2 PMMA plates. Each formulation was tested in triplicate by recording five measurements for each dish, after incubation in the dark for 15–30 min at room temperature. UV transmittance data were recorded in the range 290–400 nm using a UV-VIS spectrophotometer.
Blank plate, SPF, UVA-PF and Critical Wavelength were achieved through SPF Calculator Software (version 2.1), Shimadzu, Milan, Italy) as previously reported.
For the determination of the SPF in vitro of the samples in formulation it was decided to use an internal method, developed by us previously and based on the adaptation of the ISO 24443: 2012 [38]. The transmittance spectrum, processed with a specific software (SPF Calculator), made it possible to obtain the SPF, UVAPF, critical lambda and UVA/UVB ratio values of the formulations containing the selected active ingredients (Table 1).

| SMILES | FRAP [1] | DPPH (% Inhibition) (In vitro DPPH test) | A (absorbance) ([2]; DMSO) | ε (molar extinction coefficient) ([2]; DMSO) | λmax ([2]; DMSO) | A (absorbance) ([2]; MeOH) | ε (molar extinction coefficient) ([2]; MeOH) | λmax ([2]; MeOH) | inhibition at 100 µg/mL (Microsporum canis; 100 μg/mL, SDA) | inhibition at 100 µg/mL (Microsporum gypseum; 100 μg/mL, SDA) | inhibition at 100 µg/mL (Trichophyton tonsurans; 100 μg/mL, SDA) | inhibition at 100 µg/mL (Epidermophyton floccosum; 100 μg/mL, SDA) | inhibition at 100 µg/mL ([3]; 100 μg/mL, SDA) | melting point | other results |
| --- | --- | --- | --- | --- | --- | --- | --- | --- | --- | --- | --- | --- | --- | --- | --- |
| O=C(O)/C=C/c1ccc(O)c(O)c1 [Caffeic acid, reference compound] | 10125.48 ± 32.87 μmolTE/g | 80.15 ± 1.24% |  |  |  |  |  |  |  |  |  |  |  |  |  |
| O=C(O)c1ccc2nc(-c3ccc[nH]3)sc2c1 [Compound 8b, 2-(1H-Pyrrol-2-Yl)benzothiazole-6-Carboxylic Acid] | 373.15 ± 1.27 μmolTE/g | 5.71 ± 0.37% | 0.370 | 5308.47 | 348.87 nm | 0.190 | 3089.43 | 341.63 nm | < 0% | < 0% | 5.45 ± 0.12% | < 0% | < 0% | > 250 °C |  |
| NS(=O)(=O)c1ccc2nc(-c3ccc[nH]3)sc2c1 [Compound 8c, 2-(1H-Pyrrol-2-Yl)benzothiazole-6-Sulfonamide] | 119.12 ± 1.49 μmolTE/g | 45.24 ± 2.78% | 0.700 | 13944.22 | 344.37 nm | 0.760 | 13263.53 | 341.40 nm | 23.3 ± 0.86% | 23.1 ± 0.48% | 2.25 ± 0.03% | 24.7 ± 0.71% | 2.36 ± 0.17% | > 250 °C |  |
| O=C(O)c1ccc2nc(-c3ccco3)sc2c1 [Compound 9b, 2-(Furan-2-Yl)benzothiazole-6-Carboxylic Acid] | 66.07 ± 8.23 μmolTE/g | 9.49 ± 0.04% | 1.36 | 23901.58 | 331.90 nm | 1.02 | 19318.18 | 327.57 nm | 14.5 ± 0.83% | 18.1 ± 0.97% | 29.8 ± 1.23% | 5.48 ± 0.12% | < 0% | > 250 °C |  |
| NS(=O)(=O)c1ccc2nc(-c3ccco3)sc2c1 [Compound 9c, 2-(Furan-2-Yl)benzothiazole-6-Sulfonamide] | 150.34 ± 11.01 μmolTE/g | 64.92 ± 0.91% | 0.59 | 10332.75 | 329.00 nm | 0.740 | 13805.97 | 325.30 nm | 19.5 ± 1.2% | 17.82 ± 0.06% | < 0% | 36.4 ± 1.25% | 10.97 ± 0.08% | > 250 °C |  |
| O=S(=O)(O)c1ccc2[nH]c(-c3ccccc3)nc2c1 [PBSA, 2-Phenyl-1H-benzo[d]imidazole-5-sulfonic acid, reference compound] | <LOQ * | <LOQ * | 1.130 | 23839.66 | 310.50 nm | 1.460 | 30801.69 |  |  |  |  |  |  |  | SPF ([4]; 1% in W/O formulation): 3.22; UVAPF ([4]; 1% in W/O formulation): 0.94; λc ([4]; 1% in W/O formulation): 319 nm; SPF ([4]; 2% in W/O formulation): 4.63; UVAPF ([4]; 2% in W/O formulation): 0.94; λc ([4]; 2% in W/O formulation): 321 nm; SPF ([4]; 3% in W/O formulation): 5.09; UVAPF ([4]; 3% in W/O formulation): 1.02; λc ([4]; 3% in W/O formulation): 324 nm; inhibition at 100 µg/mL (Microsporum canis): < 0%; inhibition at 100 µg/mL (Microsporum gypseum): 9.44 ± 0.35%; inhibition at 100 µg/mL (Trichophyton tonsurans): < 0%; inhibition at 100 µg/mL (Epidermophyton floccosum): 7.28 ± 0.56%; inhibition at 100 µg/mL [3]: < 0% |
